Experimental data as given in patent publication US6410564B1, “Naphthyl compounds, intermediates, processes, compositions, and methods” (Eli Lilly and Company, priority 1994, dated 2002).
Read-outs that look alike come from different tables or passages of the source.

Key:
[1] = tested on: MCF-7 breast adenocarcinoma cells; experiment: MCF-7 Proliferation Assay (tritiated thymidine); format: cell-based; conditions: MCF-7 cells, 48 hours with drug, tritiated thymidine pulse 4 hours
Experimental: MCF-7 breast adenocarcinoma cells (ATCC HTB 22) were maintained in MEM (minimal essential medium, phenol red-free, Sigma, St. Louis, Mo.) supplimented with 10% fetal bovine serum (FBS) (V/V), L-glutamine ([…]), sodium pyruvate (1 mM), HEPES {(N-[2-hydroxyethyl]piperazine-N′-[2-ethanesulfonic acid]10 mM}, non-essential amino acids and bovine insulin (1 ug/mL) (maintenance medium). Ten days prior to assay, MCF-7 cells were switched to maintenance medium supplemented with 10% dextran coated charcoal stripped fetal bovine serum (DCC-FBS) assay medium) in place of 10% FBS to deplete internal stores of steroids. MCF-7 cells were removed from maintenance flasks using cell dissociation medium (Ca++/Mg++ free HBSS (phenol red-free) supplemented with 10 mM HEPES and 2 mM EDTA). Cells were washed twice with assay medium and adjusted to 80,000 cells/mL. Approximately 100 μL (8,000 cells) were added to flat-bottom microculture wells (Costar 3596) and incubated at 37° C. in a 5% CO2 humidified incubator for 48 hours to allow for cell adherence and equilibration after transfer. Serial dilutions of drugs or DMSO as a diluent control were prepared in assay medium and 50 μL transferred to triplicate microcultures followed by 50 μL assay medium for a final volume of 200 μL. After an additional 48 hours at 37° C. in a 5% CO2 humidified incubator, microcultures were pulsed with tritiated thymidine (1 uCi/well) for 4 hours. Cultures were terminated by freezing at −70° C. for 24 hours followed by thawing and harvesting of microcultures using a Skatron Semiautomatic Cell Harvester. Samples were counted by liquid scintillation using a Wallac BetaPlace β counter. Results in Table 4 below show the IC50 for certain compounds of the present invention.

[2] = tested on: Uterine Eosinophil Peroxidase (EPO); conditions: rat, in vivo, po
Text: (§1) Seventy-five day old female Sprague Dawley rats (weight range of 200 to 225 g) were obtained from Charles River Laboratories (Portage, Mich.). The animals were either bilaterally ovariectomized (OVX) or exposed to a Sham surgical procedure at Charles River Laboratories, and then shipped after one week. Upon arrival, they were housed in metal hanging cages in groups of 3 or 4 per cage and had ad libitum access to food (calcium content approximately 0.5%) and water for one week. Room temperature was maintained at 22.2°±1.7° C. with a minimum relative humidity of 40%. The photoperiod in the room was 12 hours light and 12 hours dark.
(§2) Dosing Regimen Tissue Collection. After a one week acclimation period (therefore, two weeks post-OVX) daily dosing with test compound was initiated. 17α-ethynyl estradiol or the test compound were given orally, unless otherwise stated, as a suspension in 1% carboxymethylcellulose or dissolved in 20% cyclodextrin. Animals were dosed daily for 4 days. Following the dosing regimen, animals were weighed and anesthetized with a ketamine: Xylazie (2:1, V:V) mixture and a blood sample was collected by cardiac puncture. The animals were then sacrificed by asphyxiation with CO2, the uterus was removed through a midline incision, and a wet uterine weight was determined.
Uterine Eosinophil Peroxidase (EPO) Assay. Uteri were kept at 4° C. until time of enzymatic analysis. The uteri were then homogenized in 50 volumes of 50 mM Tris Buffer (pH −8.0) containing 0.005% Triton X-100. Upon addition of 0.01% hydrogen peroxide and 10 mM O-phenylenediamine (final concentrations) in Tris buffer, increase in absorbance was monitored for one minute at 450 nm. The presence of eosonophils in the uterus is an indication of estrogenic activity of a compound. The maximal velocity of a 15 second interval was determined over the initial, linear portion of the reaction curve.
As is expressed in the below data, estrogenicity also was assessed by evaluating the adverse response to eosinophil infiltration into the uterus.
(§3) The data presented in the Tables 1 below reflects the response of 5 to 6 rats per treatment.

[3] = tested on: ovariectomized (OVX) female Sprague Dawley rats; experiment: Serum cholesterol in OVX rats, 4-day dosing; format: in vivo, rat; conditions: oral daily for 4 days; for inhibition in vivo at 0.01 mg/kg / inhibition in vivo at 0.1 mg/kg / inhibition in vivo at 1 mg/kg / inhibition in vivo at 10 mg/kg: Rattus norvegicus, po, 96 h, read-out: Serum Cholesterol (% decrease vs. OVX)
Text: as §1, §2
Cholesterol Analysis. Blood samples were allowed to clot at room temperature for 2 hours, and serum was obtained following centrifugation for 10 minutes at 3000 rpm. Serum cholesterol was determined using a Boehringer Mannheim Diagnostics high performance cholesterol assay. Briefly the cholesterol was oxidized to cholest-4-en-3-one and hydrogen peroxide. The hydrogen peroxide was then reacted with phenol and 4-aminophenazone in the pressure of peroxidase to produce a p-quinone imine dye, which was read spectrophotemetrically at 500 nm. Cholesterol concentration was then calculated against a standard curve. The entire assay was automated using a Biomek Automated Workstation.
(§4) Data presented in Table 1 below show comparative results among ovariectomized rats, rats treated with 17α-ethynyl estradiol (EE2; an orally available form of estrogen), and rats treated with certain compounds of the present invention. […] This uterine response to estrogen is well recognized in the art.
as §3

[4] = tested on: ovariectomized (OVX) female Sprague Dawley rats; experiment: Osteoporosis Test Procedure: distal femur metaphysis X-ray image analysis, OVX rats, 35 days; format: in vivo, rat; conditions: mean ± SEM
Text: as §1
Following the General Preparation Procedure, infra, the rats were treated daily for 35 days (6 rats per treatment group) and sacrificed by carbon dioxide asphyxiation on the 36th day. The 35 day time period was sufficient to allow maximal reduction in bone density, measured as described herein. At the time of sacrifice, the uteri were removed, dissected free of extraneous tissue, and the fluid contents were expelled before determination of wet weight in order to confirm estrogen deficiency associated with complete ovariectomy. […] The uteri were then placed in 10% neutral buffered formalin to allow for subsequent histological analysis.
The right femurs were excised and digitilized x-rays generated and analyzed by an image analysis program (NIH image) at the distal metaphysis. The proximal aspect of the tibiae from these animals were also scanned by quantitative computed tomography.
In accordance with the above procedures, compounds of the present invention and ethynyl estradiol (EE2) in 20% hydroxypropyl β-cyclodextrin were orally administered to test animals. Distal femur metaphysis data presented in Tables 2 and 3 below are the results of formula I compound treatments compared to intact and ovariectomized test animals. Results are reported as the mean ± the standard error of the mean.

[5] = tested on: ovariectomized (OVX) female Sprague Dawley rats; conditions: rat, in vivo, po, 4 days
Experimental: In the examples illustrating the methods, a post-menopausal model was used in which effects of different treatments upon circulating lipids were determined.
as §1, §2, §4, §3

[6] = Homo sapiens, MCF7, read-out: IC50
[7] = female, Sprague Dawley, 0.01 mg/kg, 4 days
[8] = female, Sprague Dawley, 0.1 mg/kg, 4 days
[9] = female, Sprague Dawley, 1 mg/kg, 4 days
[10] = female, Sprague Dawley, 10 mg/kg, 4 days
[11] = Table 2, oral daily 35 days in 20% cyclodextrin, 0.1 mg/kg, OVX control 5.5 ± 0.6, Sham 30.5 ± 4.3
[12] = Table 2, oral daily 35 days in 20% cyclodextrin, 1.0 mg/kg, OVX control 5.5 ± 0.6, Sham 30.5 ± 4.3
[13] = Table 2, oral daily 35 days in 20% cyclodextrin, 10.0 mg/kg, OVX control 5.5 ± 0.6, Sham 30.5 ± 4.3

SMILES | IC50 [1, 6] | Uterine EPO (V. max) [2, 7] | Uterine EPO (V. max) [2, 8] | Uterine EPO (V. max) [2, 9] | Uterine EPO (V. max) [2, 10] | inhibition in vivo at 0.01 mg/kg [3] | inhibition in vivo at 0.1 mg/kg ([3]; dose 0.1 mg/kg) | inhibition in vivo at 1 mg/kg ([3]; dose 1.0 mg/kg) | inhibition in vivo at 10 mg/kg ([3]; dose 10.0 mg/kg) | Uterine Weight (% increase vs. OVX) ([5]; 0.01 mg/kg) | Uterine Weight (% increase vs. OVX) ([5]; 0.1 mg/kg) | Uterine Weight (% increase vs. OVX) ([5]; 1 mg/kg) | Uterine Weight (% increase vs. OVX) ([5]; 10 mg/kg) | Distal Femur Metaphysis (X-ray Image Analysis-Gray Score) [4, 11] | Distal Femur Metaphysis (X-ray Image Analysis-Gray Score) [4, 12] | Distal Femur Metaphysis (X-ray Image Analysis-Gray Score) [4, 13] | also measured
CCN(CC)CCOc1ccc(Cc2c(-c3ccc(O)cc3)ccc3cc(O)ccc23)cc1 [Example 24, [2-(4-hydroxyphenyl)-6-hydroxynaphthalen-1-yl][4-[2-(1-N,N-diethylamino)ethoxy]phenyl]methane] |  |  |  |  |  |  |  |  |  |  |  |  |  |  |  |  | IC50 [1]: Not active; Uterine EPO (V. max) ([2]; 0.1 mg/kg): 13.8; Uterine EPO (V. max) ([2]; 1 mg/kg): 55.8; Uterine EPO (V. max) ([2]; 10 mg/kg): 36.3; Serum Cholesterol (% decrease vs. OVX) ([3]; dose 0.1 mg/kg): 69.2%; Serum Cholesterol (% decrease vs. OVX) ([3]; dose 1.0 mg/kg): 50.0%; Serum Cholesterol (% decrease vs. OVX) ([3]; dose 10.0 mg/kg): 48.4%
Cl.Oc1ccc(-c2ccc3cc(O)ccc3c2Cc2ccc(OCCN3CCCCC3)cc2)cc1 [Example 2, [2-(4-Hydroxyphenyl)-6-hydroxynaphthalen-1-yl][4-[2-(1-piperidinyl)ethoxy]phenyl]methane hydrochloride] | 0.1 nM | 4.5 | 4.5 | 4.8 | 4.2 | 34.2% | 63% | 78.1% | 58.8% | 2.4% | 24.6% | 4.1% | 2.6% |  |  |  | Distal Femur Metaphysis (X-ray Image Analysis-Gray Score) ([4]; Table 3, oral daily 35 days in 20% cyclodextrin, 0.01 mg/kg, OVX control 7.2 ± 2.2, Sham 44.7 ± 6.4): 19.6 ± 3.3; Distal Femur Metaphysis (X-ray Image Analysis-Gray Score) ([4]; Table 3, oral daily 35 days in 20% cyclodextrin, 0.1 mg/kg, OVX control 7.2 ± 2.2, Sham 44.7 ± 6.4): 25.7 ± 5.9; Distal Femur Metaphysis (X-ray Image Analysis-Gray Score) ([4]; Table 3, oral daily 35 days in 20% cyclodextrin, 1.0 mg/kg, OVX control 7.2 ± 2.2, Sham 44.7 ± 6.4): 21.5 ± 3.2; Distal Femur Metaphysis (X-ray Image Analysis-Gray Score) ([4]; Table 3, oral daily 35 days in 20% cyclodextrin, 10.0 mg/kg, OVX control 7.2 ± 2.2, Sham 44.7 ± 6.4): 30.0 ± 4.5
COc1ccc(-c2ccc3cc(OC)ccc3c2Cc2ccc(OCCN3CCCCC3)cc2)cc1.Cl [Example 1, [2-(4-Methoxyphenyl)-6-methoxynaphthalen-1-yl][4-[2-(1-piperidinyl)ethoxy]phenyl]methane hydrochloride] | 100 nM | 4.2 | 7.2 | 4.5 | 3.6 | 42.9% | 59.9% | 75% | 63.4% | −11.2% | 23.1% | 29.7% | 12.2% | 24.7 ± 4.2 | 21.7 ± 4.7 | 21.9 ± 3.2 | 
O=C(Oc1ccc(-c2ccc3cc(OC(=O)c4ccccc4)ccc3c2Cc2ccc(OCCN3CCCCC3)cc2)cc1)c1ccccc1 [Example 3, [2-(4-Benzoyloxyphenyl)-6-benzoyloxynaphthalen-1-yl][4-[2-(1-piperidinyl)ethoxy]phenyl]methane] | 0.7 nM | 5.4 | 4.2 | 4.2 | 4.8 | 33.3% | 56.7% | 63.6% | 74.7% | 2.0% | 7.1% | 0.0% | 4.5% | 14.5 ± 3.6 | 31.4 ± 5.8 | 26.6 ± 6.3 | 
Oc1ccc(-c2ccc3cc(O)ccc3c2Cc2ccc(OCCN3CCCCCC3)cc2)cc1 [Example 27, [2-(4-Hydroxyphenyl)-6-hydroxynaphthalen-1-yl][4-[2-(1-hexamethyleneiminyl)ethoxy]phenyl]methane] | 1 nM |  |  |  |  |  |  |  |  |  |  |  |  |  |  |  | 
